Data reported in patent publication US6492174B1, “Methods of initiating embryogenic cultures in plants” (Institute of Paper Science & Technology, priority 2000, dated 2002).
Like-named read-outs stand apart in the source and are kept apart here.

Experiments:
[1] = system: Loblolly pine megagametophytes
Experimental: As in Example 9, the explants in this experiment were megagametophytes, containing Stage 2-4 somatic embryos, excised from the open pollinated summer cones of four different genotypes of Loblolly pine. Megagametophytes were isolated as in Example 4 and put on initiation media #889 (Table 47). The experiment consisted of three replications per treatment, per cone collection. Replications consisted of ten explants in adjacent wells on a single well plate. Plates were wrapped in […] and incubated in the dark at 23-24° C.
Explants were cultured on solid media under atmospheres containing three levels of oxygen: normal air (21% oxygen), 30% oxygen and 50% oxygen. All oxygen treatments were applied at either normal atmospheric pressure or under an elevated pressure of 1.5 atmospheres.
After eight weeks, extrusion and initiation were scored, as described in Example 3.

[2] = system: loblolly pine; conditions: silver nitrate at about 29-59 μM; cited from earlier work
[3] = genotype 5-1036, 30% Oxygen + Pressure
[4] = genotype 5-1036, 50% Oxygen + Pressure
[5] = genotype 11-1057, 30% Oxygen + Pressure
[6] = genotype 11-1057, 50% Oxygen + Pressure
[7] = genotype 18-120, 30% Oxygen + Pressure
[8] = genotype 18-120, 50% Oxygen + Pressure
[9] = genotype 18-1212, 30% Oxygen + Pressure
[10] = genotype 18-1212, 50% Oxygen + Pressure

With O=O [Oxygen] the “% Megagametophytes Extruding” value ([1]; Total, 30% Oxygen) was 45.3%, the “% Megagametophytes Initiating” value ([1]; Total, 30% Oxygen) was 5.9% and the “% Megagametophytes Extruding” value ([1]; Total, 30% Oxygen + Pressure) was 53.2%. The “% Megagametophytes Initiating” value ([1]; Total, 30% Oxygen + Pressure) was 7.6%, the “% Megagametophytes Extruding” value ([1]; Total, 50% Oxygen) was 49.8% and the “% Megagametophytes Initiating” value ([1]; Total, 50% Oxygen) was 11.1%. For the same compound, the “% Megagametophytes Extruding” value ([1]; Total, 50% Oxygen + Pressure) was 56.9%, the “% Megagametophytes Initiating” value ([1]; Total, 50% Oxygen + Pressure) was 8.6% and the “% Megagametophytes Extruding” value ([1]; genotype 5-1036, 30% Oxygen) was 57.5 (3.8) %. For the same compound, the “% Megagametophytes Initiating” value ([1]; genotype 5-1036, 30% Oxygen) was 3.3 (3.3) %, the “% Megagametophytes Extruding” value [1, 3] was 73.3 (8.8) % and the “% Megagametophytes Initiating” value [1, 3] was 13.3 (3.3) %. For the same compound, the “% Megagametophytes Extruding” value ([1]; genotype 5-1036, 50% Oxygen) was 50.0 (10.0) %, the “% Megagametophytes Initiating” value ([1]; genotype 5-1036, 50% Oxygen) was 20.0 (5.8) % and the “% Megagametophytes Extruding” value [1, 4] was 83.3 (3.3) %. For the same compound, the “% Megagametophytes Initiating” value [1, 4] was 13.3 (3.3) %, the “% Megagametophytes Extruding” value ([1]; genotype 11-1057, 30% Oxygen) was 30.0 (15.3) % and the “% Megagametophytes Initiating” value ([1]; genotype 11-1057, 30% Oxygen) was 10.0 (0.0) %. For the same compound, the “% Megagametophytes Extruding” value [1, 5] was 34.4 (16.1) %, the “% Megagametophytes Initiating” value [1, 5] was 6.7 (67) % and the “% Megagametophytes Extruding” value ([1]; genotype 11-1057, 50% Oxygen) was 53.3 (3.3) %. The “% Megagametophytes Initiating” value ([1]; genotype 11-1057, 50% Oxygen) was 13.0 (3.3) %, the “% Megagametophytes Extruding” value [1, 6] was 43.3 (3.3) % and the “% Megagametophytes Initiating” value [1, 6] was 10.0 (5.8) %. For the same compound, the “% Megagametophytes Extruding” value ([1]; genotype 18-120, 30% Oxygen) was 33.3 (19.2) %, the “% Megagametophytes Initiating” value ([1]; genotype 18-120, 30% Oxygen) was 0.0 (0.0) % and the “% Megagametophytes Extruding” value [1, 7] was 16.7 (8.8) %. For the same compound, the “% Megagametophytes Initiating” value [1, 7] was 6.7 (6.7) %, the “% Megagametophytes Extruding” value ([1]; genotype 18-120, 50% Oxygen) was 40.0 (10.0) % and the “% Megagametophytes Initiating” value ([1]; genotype 18-120, 50% Oxygen) was 0.0 (0.0) %. The “% Megagametophytes Extruding” value [1, 8] was 30.8 (3.6) %, the “% Megagametophytes Initiating” value [1, 8] was 4.2 (4.2) % and the “% Megagametophytes Extruding” value ([1]; genotype 18-1212, 30% Oxygen) was 60.3 (8.0) %. The “% Megagametophytes Initiating” value ([1]; genotype 18-1212, 30% Oxygen) was 10.4 (5.8) %, the “% Megagametophytes Extruding” value [1, 9] was 88.4 (6.5) % and the “% Megagametophytes Initiating” value [1, 9] was 3.7 (3.7) %. The “% Megagametophytes Extruding” value ([1]; genotype 18-1212, 50% Oxygen) was 56.0 (3.6) %, the “% Megagametophytes Initiating” value ([1]; genotype 18-1212, 50% Oxygen) was 11.2 (0.7) % and the “% Megagametophytes Extruding” value [1, 10] was 70.0 (15.3) %. For the same compound, the “% Megagametophytes Initiating” value [1, 10] was 10.0 (5.8) %.
For O=[N+]([O-])[O-].[Ag+] [silver nitrate], the embryogenic culture initiation [2] is listed as “improved embryogenic culture initiation”.
